Laboratory results published in patent US9670204B2, “Compounds and pharmaceutical compositions thereof for the treatment of inflammatory disorders” (Galapagos NV, priority 2013, dated 2017).

Columns and labels:
[1] = test system: LPA 18:2 in rat plasma; assay: Rat whole blood (plasma) LPA assay; assay type: biochemical; details: 2 h at 37 C, LPA 18:2 by LC-MS/MS
Description: Whole blood is collected from rats or mouse by exsanguinations on sodium heparin tube, then after centrifugation at 3000 rpm for 15 min at 4° C., plasma is stored at −80° C. Compounds are diluted in DMSO in concentration dependent manner then 0.5 μL are dispensed into 96-well plate placed in ice. Plasma is defrosted on ice then 49.5 μL of plasma are added into the well containing 0.5 μL of compound (1% DMSO final). Plates are covered with a lid in polypropylene and incubated at +37° C., 5% CO2, for 2 h under gentle shaking (except controls which are stored at −20° C.).
At the end of the incubation, controls are defrosted in ice and transferred in the incubated plates for LC-MS/MS analysis with a non GLP-validated method. For the analysis, plasma proteins from a 10 μL incubated plates are precipitated with an excess of methanol containing the internal standard, LPA 17:0. After centrifugation, the corresponding supernatant is injected on a C18 column. Analytes are eluted out of the column under isocratic conditions. An API5500 QTRAP mass spectrometer (ABSciex™) is used for the detection of LPA 18:2. No calibration curve is prepared for LPA 18:2, however relative quantities are evaluated based on the peak area.

[2] = target: T1, hENPP2 (UniProtKB/SwissProt Q13822) (Homo sapiens (Human), UniProt Q13822); assay: hENPP2 biochemical assay, LPC as substrate; details: LPC (palmitoyl 16:0) as substrate
Procedure, shortened: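 Human ENPP2 in 50 mM Tris-HCl pH 8.5, 500 mM NaCl, 5 mM KCl, 10 mM CaCl2, 0.1% fatty-acid-free BSA, reacted 30 min at 37 °C with LPC 16:0 (150 µM solution added 1:1). Released choline measured via choline oxidase/peroxidase/TOOS/4-aminoantipyrine quinoneimine dye at 555 nm; IC50 reported.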

[3] = target: T1, hENPP2; assay: fluorescent hENPP2 biochemical assay, FS-3 as substrate; details: read-out: FS3-IC50
Procedure, shortened: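 hENPP2 in 50 mM Tris-HCl pH 8.0, 250 mM NaCl, 5 mM KCl, 1 mM MgCl2, 1 mM CaCl2, 0.1% fatty-acid-free BSA, preincubated with compound 30 min at room temperature. The 0.75 μM FS-3 solution was added and the mixture incubated 30 min at 30° C. Fluorescence (ex 485/em 520 nm) gives IC50.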

IC50 [1] [nM] | IC50 [2] [nM] | IC50 [3] [nM] | Compound
100 to 500 | 500 to 1000 | 0.01 to 100 | CCc1nc2ccc(C3CCN(S(C)(=O)=O)CC3)cn2c1N(C)c1nc(-c2ccc(F)cc2C)cs1 [Compound 98, N-(2-ethyl-6-(1-(methylsulfonyl)piperidin-4-yl)imidazo[1,2-a]pyridin-3-yl)-4-(4-fluoro-2-methylphenyl)-N-methylthiazol-2-amine]
100 to 500 | 500 to 1000 | 0.01 to 100 | CCc1nc2ccc(N3CCN(CC(=O)N(C)C)CC3)cn2c1N(C)c1nc(-c2ccc(F)cc2)c(CO)s1 [Compound 155, 2-(4-(2-ethyl-3-((4-(4-fluorophenyl)-5-(hydroxymethyl)thiazol-2-yl)(methyl)amino)imidazo[1,2-a]pyridin-6-yl)piperazin-1-yl)-N,N-dimethylacetamide]
> 1000 | > 1000 | 0.01 to 100 | CCc1nc2ccc(N3CCN(S(C)(=O)=O)CC3)cn2c1N(C)c1nc(-c2ccc(Cl)cc2)ns1 [Compound 188, 3-(4-chlorophenyl)-N-(2-ethyl-6-(4-(methylsulfonyl)piperazin-1-yl)imidazo[1,2-a]pyridin-3-yl)-N-methyl-1,2,4-thiadiazol-5-amine]
100 to 500 | 0.01 to 100 | 0.01 to 100 | CCc1nc2ccc(C3CCN(CC(=O)N4CC(O)C4)CC3)cn2c1N(C)c1nc(-c2ccc(F)cc2C#N)cs1 [Compound 170, 2-(2-((2-ethyl-6-(1-(2-(3-hydroxyazetidin-1-yl)-2-oxoethyl)piperidin-4-yl)imidazo[1,2-a]pyridin-3-yl)(methyl)amino)thiazol-4-yl)-5-fluorobenzonitrile]
500 to 1000 | 100 to 500 | 0.01 to 100 | CCc1nc2ccc(C3CCN(CC(=O)N(C)C)CC3)cn2c1N(C)c1nc(-c2ccc(F)cc2)cs1 [Compound 114, 2-(4-(2-ethyl-3-((4-(4-fluorophenyl)thiazol-2-yl)(methyl)amino)imidazo[1,2-a]pyridin-6-yl)piperidin-1-yl)-N,N-dimethylacetamide]
0.01 to 100 | 100 to 500 | 0.01 to 100 | CCc1nc2ccc(C3CCN(S(C)(=O)=O)CC3)cn2c1N(C)c1nc(-c2ccc(F)cc2)c(C#N)s1 [Compound 136, 2-((2-ethyl-6-(1-(methylsulfonyl)piperidin-4-yl)imidazo [1,2-a]pyridin-3-yl)(methyl)amino)-4-(4-fluorophenyl) thiazole-5-carbonitrile]
0.01 to 100 | 0.01 to 100 | 0.01 to 100 | CCc1nc2ccc(C3CCN(CC(=O)N4CC[C@H](O)C4)CC3)cn2c1N(C)c1nc(-c2ccc(F)cc2)c(C#N)s1 [Compound 143, (S)-2-((2-ethyl-6-(1-(2-(3-hydroxypyrrolidin-1-yl)-2-oxoethyl)piperidin-4-yl)imidazo[1,2-a]pyridin-3-yl)(methyl)amino)-4-(4-fluorophenyl)thiazole-5-carbonitrile]
> 1000 | > 1000 | 0.01 to 100 | CCc1nc2ccc(N3CCN(C(=O)CCCN(C)C)CC3)cn2c1N(C)c1nc(-c2ccc(F)cc2)cs1 [Compound 53, 4-(dimethylamino)-1-(4-(2-ethyl-3-((4-(4-fluorophenyl)thiazol-2-yl)(methyl)amino)imidazo[1,2-a]pyridin-6-yl)piperazin-1-yl)butan-1-one]
> 1000 | 500 to 1000 | 0.01 to 100 | CCc1nc2ccc(N3CCN(S(C)(=O)=O)CC3)cn2c1N(C)c1nc(-c2ccc(F)cc2)cs1 [Compound 54, N-(2-ethyl-6-(4-(methylsulfonyl)piperazin-1-yl)imidazo [1,2-a]pyridin-3-yl)-4-(4-fluorophenyl)-N-methylthiazol-2-amine]
500 to 1000 | 0.01 to 100 | 0.01 to 100 | CCc1nc2ccc(N3CCN(CC(=O)N4CC(O)C4)CC3)cn2c1N(C)c1nc(-c2ccc(F)cc2C#N)cs1 [Compound 166, 2-(2-((2-ethyl-6-(4-(2-(3-hydroxyazetidin-1-yl)-2-oxoethyl)piperazin-1-yl)imidazo[1,2-a]pyridin-3-yl)(methyl)amino)thiazol-4-yl)-5-fluorobenzonitrile]
100 to 500 | 0.01 to 100 | 0.01 to 100 | CCc1nc2ccc(C3CCN(CC(=O)N4CC(O)C4)CC3)cn2c1N(C)c1nc(-c2ccc(F)cc2C#N)ns1 [Compound 173, 2-(5-((2-ethyl-6-(1-(2-(3-hydroxyazetidin-1-yl)-2-oxoethyl)piperidin-4-yl)imidazo[1,2-a]pyridin-3-yl)(methyl)amino)-1,2,4-thiadiazol-3-yl)-5-fluorobenzonitrile]
100 to 500 | 0.01 to 100 | 0.01 to 100 | CCc1nc2ccc(C3CCN(CC(=O)N4CC(O)C4)CC3)cn2c1N(C)c1nc(-c2ccc(F)cc2)c(C(=O)C(F)(F)F)s1 [Compound 159, 1-(2-((2-ethyl-6-(1-(2-(3-hydroxyazetidin-1-yl)-2-oxoethyl)piperidin-4-yl)imidazo[1,2-a]pyridin-3-yl)(methyl)amino)-4-(4-fluorophenyl)thiazol-5-yl)-2,2,2-trifluoroethanone]
> 1000 | > 1000 | 0.01 to 100 | CCc1nc2ccc(C3=CCN(S(C)(=O)=O)CC3)cn2c1N(C)c1nc(-c2ccc(F)cc2)cs1 [Compound 66, N-(2-ethyl-6-(1-(methylsulfonyl)-1,2,3,6-tetrahydropyridin-4-yl)imidazo[1,2-a]pyridin-3-yl)-4-(4-fluorophenyl)-N-methylthiazol-2-amine]
> 1000 | > 1000 | 0.01 to 100 | CCc1nc2ccc(N3CCS(=O)(=O)CC3)cn2c1N(C)c1nc(-c2ccc(Cl)cc2)cs1 [Compound 213, 4-(2-ethyl-3-((4-(4-chlorophenyl)thiazol-2-yl)(methyl)amino)imidazo[1,2-a]pyridin-6-yl)-thiomorpholin-1,1-dioxide]
> 1000 | 500 to 1000 | 0.01 to 100 | CCc1nc2ccc(C3CCN(S(=O)(=O)CCN4CCOCC4)CC3)cn2c1N(C)c1nc(-c2ccc(F)cc2)cs1 [Compound 91, N-(2-ethyl-6-(1-(2-morpholinoethylsulfonyl)piperidin-4 yl)imidazo[1,2-a]pyridin-3-yl)-4-(4-fluorophenyl)-N-methylthiazol-2-amine]
0.01 to 100 | 100 to 500 | 0.01 to 100 | CCc1nc2ccc(C3CCN(S(C)(=O)=O)CC3)cn2c1N(C)c1nc(-c2ccc(F)cc2C#N)cs1 [Compound 96, 2-(2-((2-ethyl-6-(1-(methylsulfonyl)piperidin-4-yl)imidazo [1,2-a]pyridin-3-yl)(methyl)amino)thiazol-4-yl)-5-fluorobenzonitrile]
> 1000 | > 1000 | 0.01 to 100 | CCc1nc2ccc(N3CCN(C(=O)C4CCCN4)CC3)cn2c1N(C)c1nc(-c2ccc(F)cc2)cs1 (stereo not drawn) [Compound 46, (4-(2-ethyl-3-((4-(4-fluorophenyl)thiazol-2-yl)(methyl)amino)imidazo[1,2-a]pyridin-6-yl)piperazin-1-yl)(pyrrolidin-2-yl)methanone]
100 to 500 | 0.01 to 100 | 0.01 to 100 | CCc1nc2ccc(N3CCN(CC(=O)N4CCC4)CC3)cn2c1N(C)c1nc(-c2ccc(F)cc2C#N)cs1 [Compound 167, 2-(2-((6-(4-(2-(azetidin-1-yl)-2-oxoethyl)piperazin-1-yl)-2-ethylimidazo[1,2-a]pyridin-3-yl)(methyl)amino)thiazol-4-yl)-5-fluorobenzonitrile]

Compound | IC50 [1] [nM] | IC50 [2] [nM] | IC50 [3] [nM]
CCc1nc2ccc(C3CCN(CC(=O)N4CC[C@H](O)C4)CC3)cn2c1N(C)c1nc(-c2ccc(F)cc2)cs1 [Compound 112, (S)-2-(4-(2-ethyl-3-((4-(4-fluorophenyl)thiazol-2-yl)(methyl)amino)imidazo[1,2-a]pyridin-6-yl)piperidin-1-yl)-1-(3-hydroxypyrrolidin-1-yl)ethanone] | 100 to 500 | 100 to 500 | 0.01 to 100
CCc1nc2ccc(C3CCN(S(C)(=O)=O)CC3)cn2c1N(C)c1nc(-c2ccc(F)cc2)c(C(=O)C(F)(F)F)s1 [Compound 160, 1-(2-((2-ethyl-6-(1-(methylsulfonyl)piperidin-4-yl)imidazo[1,2-a]pyridin-3-yl)(methyl)amino)-4-(4-fluorophenyl)thiazol-5-yl)-2,2,2-trifluoroethanone] | 0.01 to 100 | 100 to 500 | 0.01 to 100
CCc1nc2ccc(C3CCN(CC(=O)N4CC[C@@H](O)C4)CC3)cn2c1N(C)c1nc(-c2ccc(F)cc2)cs1 [Compound 111, (R)-2-(4-(2-ethyl-3-((4-(4-fluorophenyl)thiazol-2-yl)(methyl)amino)imidazo[1,2-a]pyridin-6-yl)piperidin-1-yl)-1-(3-hydroxypyrrolidin-1-yl)ethanone] | 500 to 1000 | 100 to 500 | 0.01 to 100
